The values that follow are results of earlier work, collected in patent publication US20180295833A1, “METHOD FOR SUPPRESSION OF OR PROTECTION FROM ISCHEMIA/REPERFUSION INJURY OF ORGANS FOR TRANSPLANTATION” (MiZ Company Limited, priority 2017, published 2018).

The conditions of this data set: normal temperature and normal pressure of 15° C. to 25° C. and 1 atm.

For `[HH]` [molecular hydrogen], the “saturation concentration of molecular hydrogen” value is reported as 1.6 ppm.
